Measurements published in patent publication US8404844B2, “Perylene semiconductors and methods of preparation and use thereof” (BASF SE, priority 2008, dated 2013).
In brackets after ≈: the same amount, converted by molar mass.

Assays:
[1] = Cyclic voltammetry (reduction potential); assay type: physicochemical; details: 0.1 M THF/TBAPF6, under N2, bare Ag reference electrode, scan 60-150 mV/s
Procedure: Cyclic voltammetry experiments were conducted using an Epsilon single-channel […] and a BAS C3 cell stand (a one-compartment cell with a C disk working electrode, a bare Ag reference electrode, and a Pt wire counter electrode). Appropriate precautions were taken to eliminate water and oxygen during measurement. All measurements were performed under N2 by dissolving the compound (1-3 mg) in a 0.1 M THF/TBAPF6 solutions with scanning rates between 60-150 mV/s. When the voltammograms are (quasi)reversible, it is possible to extract formal potentials (E^1/2) as the midpoints between peak potentials for the forward and reverse scans.
Table 1 summarizes certain physical and electrical properties of some compounds of the present teachings, including Ered values obtained from the cyclic voltammetry experiments. N,N′-Bis(4-n-octyl)-1,7-dicyanoperylene-3,4:9,10-bis(dicarboximide) (PDI8-CN2), N,N′-bis[(3S)-3,7-dimethyl-6-octenyl]-1,7-dicyanoperylene-3,4:9,10-bis(dicarboximide) (PDICitr-CN2), N,N′-bis(2-ethylhexyl)-1,7-dicyanoperylene-3,4:9,10-bis(dicarboximide) (PDI2EH-CN2), and N,N′-bis(2-methylhexyl)-1,7-dicyanoperylene-3,4:9,10-bis(dicarboximide) (PDI2MH-CN2) were included as comparative representative compounds.

[2] = Solubility in organic solvents; assay type: physicochemical; details: for Solubility CHCl3: chloroform; for Solubility DCB: dichlorobenzene (DCB); for Solubility compared to similar compounds: compared to PDI8-CN2, PDI2EH-CN2, PDICitr-CN2 and PDI2MH-CN2
Procedure: As certain embodiments of the compounds disclosed herein can be soluble in common solvents, the present teachings can offer processing advantages in fabricating electrical devices such as thin film semiconductors, field-effect devices, organic light emitting diodes (OLEDs), organic photovoltaics, photodetectors, capacitors, and sensors. As used herein, a compound can be considered soluble in a solvent when at least 1 mg of the compound can be dissolved in 1 mL of the solvent. Examples of common organic solvents include petroleum ethers; acetonitrile; aromatic hydrocarbons such as benzene, toluene, xylene, and mesitylene; ketones such as acetone and methyl ethyl ketone; ethers such as tetrahydrofuran, dioxane, bis(2-methoxyethyl)ether, diethyl ether, di-isopropyl ether, and t-butyl methyl ether; alcohols such as methanol, ethanol, butanol, and isopropyl alcohol; aliphatic hydrocarbons such as hexanes; acetates such as methyl acetate, ethyl acetate, methyl formate, ethyl formate, isopropyl acetate, and butyl acetate; amides such as dimethylformamide and dimethylacetamide; sulfoxides such as dimethylsulfoxide; halogenated aliphatic and aromatic hydrocarbons such as dichloromethane, chloroform, ethylene chloride, chlorobenzene, dichlorobenzene, and trichlorobenzene; and cyclic solvents such as cyclopentanone, cyclohexanone, and 2-methypyrrolidone. Examples of common inorganic solvents include water and ionic liquids.
Greater solubilities (2-10 times) can be achieved using warm solvents.

SMILES | Ered [1] | Solubility CHCl3 [2] | Solubility DCB [2] | Solubility (DCB, 70° C.) [2] | Solubility compared to similar compounds [2]
CCCC(CC)N1C(=O)c2ccc3c4c(Br)cc5c6c(ccc(c7c(Br)cc(c2c37)C1=O)c64)C(=O)N(C(CC)CCC)C5=O (stereo not shown) [PDI1EB-Br2, N,N′-bis(1-ethylbutyl)-1,7-dibromoperylene-3,4:9,10-bis(dicarboximide)] | −0.34 V |  |  |  | 
CCCC(CC)N1C(=O)c2ccc3c4c(C#N)cc5c6c(ccc(c7c(C#N)cc(c2c37)C1=O)c64)C(=O)N(C(CC)CCC)C5=O (stereo not shown) [PDI1EB-CN2, N,N′-bis(1-ethylbutyl)-1,7-dicyanoperylene-3,4:9,10-bis(dicarboximide)] | −0.106 V | 8000 µg/mL (≈ 13.1 mM) | 10000 µg/mL (≈ 16.4 mM) |  | 
CCC(CC)N1C(=O)c2ccc3c4c(Br)cc5c6c(ccc(c7c(Br)cc(c2c37)C1=O)c64)C(=O)N(C(CC)CC)C5=O [PDI1EPr-Br2, N,N′-bis(1-ethylpropyl)-1,7-dibromoperylene-3,4:9,10-bis(dicarboximide)] | −0.38 V |  |  |  | 
CCC(CC)N1C(=O)c2ccc3c4c(C#N)cc5c6c(ccc(c7c(C#N)cc(c2c37)C1=O)c64)C(=O)N(C(CC)CC)C5=O [PDI1EPr-CN2, N,N′-bis(1-ethylpropyl)-1,7-dicyanoperylene-3,4:9,10-bis(dicarboximide)] | −0.101 V |  | 10000 µg/mL (≈ 17.2 mM) |  | 
CC(C)CC(C)N1C(=O)c2ccc3c4c(Br)cc5c6c(ccc(c7c(Br)cc(c2c37)C1=O)c64)C(=O)N(C(C)CC(C)C)C5=O (stereo not shown) [PDI1M3MB-Br2, N,N′-bis(1,3-dimethylbutyl)-1,7-dibromoperylene-3,4:9,10-bis(dicarboximide)] | −0.39 V |  |  |  | 
CC(C)CC(C)N1C(=O)c2ccc3c4c(C#N)cc5c6c(ccc(c7c(C#N)cc(c2c37)C1=O)c64)C(=O)N(C(C)CC(C)C)C5=O (stereo not shown) [PDI1M3MB-CN2, N,N′-bis(1,3-dimethylbutyl)-1,7-dicyanoperylene-3,4:9,10-bis(dicarboximide)] | −0.088 V | 30000 µg/mL (≈ 49.3 mM) | 37000 µg/mL (≈ 60.8 mM) | 37100 µg/mL (≈ 60.9 mM) | unexpected increase in solubility
CCCC(C)N1C(=O)c2ccc3c4c(Br)cc5c6c(ccc(c7c(Br)cc(c2c37)C1=O)c64)C(=O)N(C(C)CCC)C5=O (stereo not shown) [PDI1MB-Br2, N,N′-bis(1-methylbutyl)-1,7-dibromoperylene-3,4:9,10-bis(dicarboximide)] | −0.39 V |  |  |  | 
CCCC(C)N1C(=O)c2ccc3c4c(C#N)cc5c6c(ccc(c7c(C#N)cc(c2c37)C1=O)c64)C(=O)N(C(C)CCC)C5=O (stereo not shown) [PDI1MB-CN2, N,N′-bis(1-methylbutyl)-1,7-dicyanoperylene-3,4:9,10-bis(dicarboximide)] | −0.083 V |  | 5000 µg/mL (≈ 8.61 mM) |  | 

Other lines, results leading:

Ered [1] | Solubility CHCl3 [2] | Solubility DCB [2] | Solubility (DCB, 70° C.) [2] | Solubility compared to similar compounds [2] | SMILES
−0.38 V |  |  |  |  | CCCCCC(C)N1C(=O)c2ccc3c4c(Br)cc5c6c(ccc(c7c(Br)cc(c2c37)C1=O)c64)C(=O)N(C(C)CCCCC)C5=O (stereo not shown) [PDI1MH-Br2, N,N′-bis(1-methylhexyl)-1,7-dibromoperylene-3,4:9,10-bis(dicarboximide)]
−0.094 V | 54000 µg/mL (≈ 84.8 mM) | 52000 µg/mL (≈ 81.7 mM) |  | unexpected increase in solubility | CCCCCC(C)N1C(=O)c2ccc3c4c(C#N)cc5c6c(ccc(c7c(C#N)cc(c2c37)C1=O)c64)C(=O)N(C(C)CCCCC)C5=O (stereo not shown) [PDI1MH-CN2, N,N′-bis(1-methylhexyl)-1,7-dicyanoperylene-3,4:9,10-bis(dicarboximide)]
−0.41 V |  |  |  |  | CCCCC(C)N1C(=O)c2ccc3c4c(Br)cc5c6c(ccc(c7c(Br)cc(c2c37)C1=O)c64)C(=O)N(C(C)CCCC)C5=O (stereo not shown) [PDI1MP-Br2, N,N′-bis(1-methylpentyl)-1,7-dibromoperylene-3,4:9,10-bis(dicarboximide)]
−0.071 V | 43000 µg/mL (≈ 70.6 mM) | 40000 µg/mL (≈ 65.7 mM) | 41800 µg/mL (≈ 68.7 mM) | unexpected increase in solubility | CCCCC(C)N1C(=O)c2ccc3c4c(C#N)cc5c6c(ccc(c7c(C#N)cc(c2c37)C1=O)c64)C(=O)N(C(C)CCCC)C5=O (stereo not shown) [PDI1MP-CN2, N,N′-bis(1-methylpentyl)-1,7-dicyanoperylene-3,4:9,10-bis(dicarboximide)]
−0.40 V |  |  |  |  | CCC(C)N1C(=O)c2ccc3c4c(Br)cc5c6c(ccc(c7c(Br)cc(c2c37)C1=O)c64)C(=O)N(C(C)CC)C5=O (stereo not shown) [PDI1MPr-Br2, N,N′-bis(1-methylpropyl)-1,7-dibromoperylene-3,4:9,10-bis(dicarboximide)]
−0.091 V |  | 8000 µg/mL (≈ 14.5 mM) |  |  | CCC(C)N1C(=O)c2ccc3c4c(C#N)cc5c6c(ccc(c7c(C#N)cc(c2c37)C1=O)c64)C(=O)N(C(C)CC)C5=O (stereo not shown) [PDI1MPr-CN2, N,N′-bis(1-methylpropyl)-1,7-dicyanoperylene-3,4:9,10-bis(dicarboximide)]
−0.130 V | 5000 µg/mL (≈ 7.52 mM) | 5000 µg/mL (≈ 7.52 mM) |  |  | CCCCC(CC)CN1C(=O)c2ccc3c4c(C#N)cc5c6c(ccc(c7c(C#N)cc(c2c37)C1=O)c64)C(=O)N(CC(CC)CCCC)C5=O (stereo not shown) [PDI2EH-CN2, N,N′-bis(2-ethylhexyl)-1,7-dicyanoperylene-3,4:9,10-bis(dicarboximide), reference compound]
−0.120 V |  | 5000 µg/mL (≈ 7.85 mM) |  |  | CCCCC(C)CN1C(=O)c2ccc3c4c(C#N)cc5c6c(ccc(c7c(C#N)cc(c2c37)C1=O)c64)C(=O)N(CC(C)CCCC)C5=O (stereo not shown) [PDI2MH-CN2, N,N′-bis(2-methylhexyl)-1,7-dicyanoperylene-3,4:9,10-bis(dicarboximide), reference compound]
−0.150 V | 4000 µg/mL (≈ 6.02 mM) | 4000 µg/mL (≈ 6.02 mM) |  |  | CCCCCCCCN1C(=O)c2ccc3c4c(C#N)cc5c6c(ccc(c7c(C#N)cc(c2c37)C1=O)c64)C(=O)N(CCCCCCCC)C5=O [PDI8-CN2, N,N′-Bis(4-n-octyl)-1,7-dicyanoperylene-3,4:9,10-bis(dicarboximide), reference compound]
−0.142 V |  | 8000 µg/mL (≈ 11.2 mM) |  |  | CC(C)=CCC[C@H](C)CCN1C(=O)c2ccc3c4c(C#N)cc5c6c(ccc(c7c(C#N)cc(c2c37)C1=O)c64)C(=O)N(CC[C@@H](C)CCC=C(C)C)C5=O [PDICitr-CN2, N,N′-bis[(3S)-3,7-dimethyl-6-octenyl]-1,7-dicyanoperylene-3,4:9,10-bis(dicarboximide), reference compound]
